Results as given in patent US20120295907A1, “INSECTICIDAL COMPOUNDS” (SYNGENTA CROP PROTECTION, LLC, priority 2009, published 2012).

How the values were obtained:
Type in all cases: in vivo
Spodoptera littoralis = Spodoptera littoralis (Egyptian Cotton Leafworm) cotton leaf disc spray test; settings: foliar, 72 h, 200 ppm spray on cotton leaf discs, L1 larvae, mortality, feeding behavior, growth regulation 3 DAT
Heliothis virescens = Heliothis virescens (Tobacco Budworm) egg test on artificial diet; settings: 96 h, 200 ppm (concentration in well 18 ppm), eggs 0-24 h old on artificial diet, 4 days, egg mortality, larval mortality, growth regulation
Plutella xylostella = Plutella xylostella (Diamond Back Moth) artificial diet MTP test; settings: 144 h, 200 ppm (concentration in well 18 ppm), L2 larvae, 6 days, larval mortality, growth regulation
Diabrotica balteata = Diabrotica balteata (Corn Root Worm) artificial diet MTP test; settings: 120 h, 200 ppm (concentration in well 18 ppm), L2 larvae, 5 days, larval mortality, growth regulation
Thrips tabaci = Thrips tabaci (Onion Thrips) sunflower leaf disc spray test; settings: foliar, 168 h, 200 ppm spray on sunflower leaf discs, population of mixed ages, 7 days, mortality
Tetranychus urticae = Tetranychus urticae (Two-Spotted Spider Mite) bean leaf disc spray test; settings: foliar, 192 h, 200 ppm spray on bean leaf discs, mite populations of mixed ages, 8 days, egg, larval and adult mortality, read-out: control of Tetranychus urticae

Measured: pest or weed control at 200 ppm

COc1c(NC(=O)c2ccc([N+](=O)[O-])cc2C(F)(F)F)cccc1C(=O)Nc1c(Cl)cc(C(F)(C(F)(F)F)C(F)(F)C(F)(F)F)cc1Br (stereo not drawn) [B178]
≥ 80%: all assays above

COc1c(NC(=O)c2snnc2C)cccc1C(=O)Nc1c(Cl)cc(C(F)(C(F)(F)F)C(F)(F)C(F)(F)F)cc1Br (stereo not drawn) [B21]
≥ 80%: all assays above

COc1c(NC(=O)c2ccc(Br)c(C)c2)cccc1C(=O)Nc1c(Cl)cc(C(F)(C(F)(F)F)C(F)(F)C(F)(F)F)cc1Br (stereo not drawn) [B65]
not listed: Diabrotica balteata
≥ 80%: all other assays above

COc1c(NC(=O)c2cc(Cl)nc(Cl)c2)cccc1C(=O)Nc1c(Cl)cc(C(F)(C(F)(F)F)C(F)(F)C(F)(F)F)cc1Br (stereo not drawn) [B97]
≥ 80%: all assays above

CCc1cc(C(F)(C(F)(F)F)C(F)(F)C(F)(F)F)cc(C)c1NC(=O)c1cccc(NC(=O)c2ccc(C#N)cc2C)c1OC (stereo not drawn) [A5, N-[2-ethyl-4-(1,2,2,3,3,3-hexafluoro-1-trifluoromethylpropyl)-6-methyl-phenyl]-3-(4-cyano-2-methylbenzoylamino)-2-methoxybenzamide]
not listed: Heliothis virescens
≥ 80%: all other assays above

COc1c(NC(=O)c2ccc(Cl)s2)cccc1C(=O)Nc1c(Cl)cc(C(F)(C(F)(F)F)C(F)(F)C(F)(F)F)cc1Br (stereo not drawn) [B67]
≥ 80%: all assays above

COc1c(NC(=O)c2snnc2C)cccc1C(=O)Nc1c(Cl)cc(C(F)(C(F)(F)F)C(F)(F)F)cc1Cl [E20]
≥ 80%: all assays above

COc1c(NC(=O)c2c(F)cc(F)cc2F)cccc1C(=O)Nc1c(C)cc(C(F)(C(F)(F)F)C(F)(F)F)cc1C [K1]
≥ 80%: all assays above

COc1c(NC(=O)c2ccc([N+](=O)[O-])cc2Cl)cccc1C(=O)Nc1c(Cl)cc(C(F)(C(F)(F)F)C(F)(F)C(F)(F)F)cc1Cl (stereo not drawn) [C11]
≥ 80%: all assays above

COc1c(NC(=O)c2cc(C(F)(F)F)nn2C)cccc1C(=O)Nc1c(Cl)cc(C(F)(C(F)(F)F)C(F)(F)C(F)(F)F)cc1Br (stereo not drawn) [B113]
≥ 80%: all assays above

CCc1cc(C(F)(C(F)(F)F)C(F)(F)C(F)(F)F)cc(C)c1NC(=O)c1cccc(NC(=O)c2cccc([N+](=O)[O-])c2C)c1OC (stereo not drawn) [A2, N-[2-ethyl-4-(1,2,2,3,3,3-hexafluoro-1-trifluoromethylpropyl)-6-methylphenyl]-3-(2-methyl-3-nitrobenzoylamino)-2-methoxybenzamide]
≥ 80%: Spodoptera littoralis | Plutella xylostella | Thrips tabaci | Tetranychus urticae

COc1c(NC(=O)c2ccc(Cl)c(OC)c2Cl)cccc1C(=O)Nc1c(Cl)cc(C(F)(C(F)(F)F)C(F)(F)C(F)(F)F)cc1Br (stereo not drawn) [B109]
≥ 80%: all assays above

COc1c(NC(=O)c2cc(F)ccc2Cl)cccc1C(=O)Nc1c(Cl)cc(C(F)(C(F)(F)F)C(F)(F)C(F)(F)F)cc1Br (stereo not drawn) [B154]
not listed: Heliothis virescens
≥ 80%: all other assays above

COc1c(NC(=O)c2ccc(C#N)cc2C)cccc1C(=O)Nc1c(Cl)cc(C(F)(C(F)(F)F)C(F)(F)C(F)(F)F)cc1Br (stereo not drawn) [B1, N-[2-bromo-6-chloro-4-(1,2,2,3,3,3-hexafluoro-1-trifluoromethylpropyl)-phenyl]-3-(4-cyano-2-methylbenzoylamino)-2-methoxybenzamide]
not listed: Diabrotica balteata
≥ 80%: all other assays above

COc1c(NC(=O)c2ccc(C(F)(F)F)cc2)cccc1C(=O)Nc1c(Cl)cc(C(F)(C(F)(F)F)C(F)(F)C(F)(F)F)cc1Cl (stereo not drawn) [C15]
not listed: Diabrotica balteata
≥ 80%: all other assays above

COc1c(NC(=O)c2c(F)cc(C#N)cc2F)cccc1C(=O)Nc1c(Cl)cc(C(F)(C(F)(F)F)C(F)(F)C(F)(F)F)cc1Br (stereo not drawn) [B176]
not listed: Diabrotica balteata
≥ 80%: all other assays above

COc1c(NC(=O)c2ccc([N+](=O)[O-])c(C)c2)cccc1C(=O)Nc1c(Cl)cc(C(F)(C(F)(F)F)C(F)(F)C(F)(F)F)cc1Br (stereo not drawn) [B190]
not listed: Diabrotica balteata
≥ 80%: all other assays above

COc1c(NC(=O)c2c(F)cccc2F)cccc1C(=O)Nc1c(Cl)cc(C(F)(C(F)(F)F)C(F)(F)C(F)(F)F)cc1Br (stereo not drawn) [B172]
not listed: Diabrotica balteata
≥ 80%: all other assays above

COc1c(NC(=O)c2ccc(Cl)cc2Cl)cccc1C(=O)Nc1c(C)cc(C(F)(C(F)(F)F)C(F)(F)C(F)(F)F)cc1C (stereo not drawn) [F15]
not listed: Thrips tabaci
≥ 80%: all other assays above

COc1c(NC(=O)c2ccc([N+](=O)[O-])cc2F)cccc1C(=O)Nc1c(Cl)cc(C(F)(C(F)(F)F)C(F)(F)C(F)(F)F)cc1Br (stereo not drawn) [B191]
not listed: Diabrotica balteata
≥ 80%: all other assays above
